pIC50: −log10 of the molar value.
Tested on: 991263-137-R1-J2-PDC complex spheroid viability
Experiment: Anticancer human tumor 991263-137-R1-J2-PDC patient-derived colon adenocarcinoma cell line growth inhibition [POLQ]
Conditions: for pIC50: curve of first compound; for viability, T/C: stronger effect = lower value
Method: Multicellular complex tumor spheroid response to Polymerase (POL) inhibitors (novobiocin, ART-558, RP6685) in combination with a variety of drugs and investigational agents in selected tumor cell lines
The POL inhibitors (novobiocin, ART-558, and RP6685) were evaluated both individually and in combination with standard of care and investigational anticancer small molecules within a complex spheroid model of solid tumors. . Complex spheroids include a stromal component modeled by human endothelial cells (HUVEC) and fibroblasts modeled by human mesenchymal stem cells (MSCs). The concentration ranges selected for each drug and investigational agent were based upon clinically achievable concentrations if the clinical Cmax of the agent was known.
Compounds. The drugs and investigational agents: novobiocin (NSC847541), ART-558 (NSC835418), RP-6685 (NSC848927), peposertib (NSC802822), ceralasertib (NSC780249), elimusertib (NSC800525), camonsertib (NSC841442), AZD-1390 (NSC803789), olaparib (NSC753686), talazoparib (NSC767125), rucaparib (NSC756644), sotorasib (NSC818433), MRTX-1133 (NSC836407), SN-38 (NSC673596), topotecan (NSC609699), epotoside (NSC141540), doxorubicin (NSC123127), gemcitabine (NSC613327), 5-fluorouracil (NSC19893), paclitaxel (NSC125973), vemurafenib (NSC761431), MSA-2 (NSC828583), SN-011 (NSC837082), adavosertib (NSC754352), prexasertib (NSC758257), carboplatin (NSC241240) and oxaliplatin (NSC266046), were obtained from the National Cancer Institute (NCI) Developmental Therapeutics Program Chemical Repository (21). The FDA-approved anticancer drug set is available from the Developmental Therapeutics Program at https://dtp.cancer.gov/organization/dscb/obtaining/. […] The stock solutions were prepared in dimethyl sulfoxide (DMSO, Sigma-Aldrich, St. Louis, MO, cat. D2650), except for the platinum compounds which were prepared in saline (Quality Biological, Gaithersburg, MD, cat. 114-055-101), at 800-fold the tested concentration and stored at -70 degrees C prior to their use. All drugs and investigational agents were tested over a range starting from a high concentration at or near the clinical Cmax and decreasing in half-log increments. If the clinical Cmax for an agent had not been determined, the highest concentration tested was 10 microM, except for SN-38, which was tested at a high concentration of 1 microM.
Cell Culture. All cells were maintained in an incubator at 37 degrees C and 5% CO2 with 95% humidity. The PDC lines were cultured according to standard operating procedures established by the NCI PDMR (https://pdmr.cancer.gov). Table 3 of the manuscript, lists the cell lines along with the number of the three cell types plated to form the mct-spheroids and media for tumor cell growth. After thawing, all PDC lines, except 997537-175-T-J1-PDC and 415267-285-R-J2-PDC, were cultured in Matrigel-coated flasks prepared with a working solution of 1X Ham's F-12 nutrient mix, without supplementation (Thermo Fisher Scientific, cat. 11765054), 100 U/mL penicillin-streptomycin (Thermo Fisher Scientific, cat. 15140122), and 2.5% Matrigel (Corning Inc., Corning, NY, cat. 354248) for the first three passages. The two PDC lines 997537-175-T-J1-PDC and 415267-285-R-J2-PDC were cultured on uncoated flasks. The 857933-349-R-J2-PDC line was cultured in 6C/Colon 1B media containing advanced DMEM/F-12 (Thermo Fisher Scientific, cat. 12634028), 10 mM HEPES (Thermo Fisher Scientific, cat. 15630080), 1X GlutaMAX supplement (Thermo Fisher Scientific, cat. 35050061), 0.1 mg/mL primocin (InvivoGen, San Diego, CA, cat. ant-pm-2), 10% defined fetal bovine serum, heat inactivated (HyClone Laboratories Inc., Logan, UT, cat. SH30070.03HI), 50% L-WRN conditioned media (ATCC, cat. CRL-3276), 1.25 mM N-Acetyl-L-cysteine (Sigma-Aldrich, cat. A9165), 10 mM nicotinamide (Sigma-Aldrich, cat. N0636), 1X B-27 supplement (Thermo Fisher Scientific, cat. 17504044), 1X N-2 supplement (Thermo Fisher Scientific, cat. […]

[1] = second compound 0.0316 µM, first compound 0.0316 µM
[2] = second compound 0.0316 µM, first compound 0.1 µM
[3] = second compound 0.0316 µM, first compound 0.316 µM
[4] = second compound 0.0316 µM, first compound 1 µM
[5] = second compound 0.1 µM, first compound 0.0316 µM
[6] = second compound 0.1 µM, first compound 0.1 µM
[7] = second compound 0.1 µM, first compound 0.316 µM
[8] = second compound 0.1 µM, first compound 1 µM
[9] = second compound 0.316 µM, first compound 0.0316 µM
[10] = second compound 0.316 µM, first compound 0.1 µM
[11] = second compound 0.316 µM, first compound 0.316 µM
[12] = second compound 0.316 µM, first compound 1 µM
[13] = second compound 1 µM, first compound 0.0316 µM
[14] = second compound 1 µM, first compound 0.1 µM
[15] = second compound 1 µM, first compound 0.316 µM
[16] = second compound 1 µM, first compound 1 µM
[17] = second compound 3.16 µM, first compound 0.0316 µM
[18] = second compound 3.16 µM, first compound 0.1 µM
[19] = second compound 3.16 µM, first compound 0.316 µM
[20] = second compound 3.16 µM, first compound 1 µM
[21] = second compound 10 µM, first compound 0.0316 µM
[22] = second compound 10 µM, first compound 0.1 µM
[23] = second compound 10 µM, first compound 0.316 µM
[24] = second compound 10 µM, first compound 1 µM
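Further: spheroids exposed to compounds for 7 days before readout.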
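Wherever viability, T/C is given: 100% = DMSO vehicle control viability.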

Work on `C=CCn1c(=O)c2cnc(Nc3ccc(N4CCN(C)CC4)cc3)nc2n1-c1cccc(C(C)(C)O)n1` + COC1C(OC(N)=O)C(O)C(Oc2ccc3c(O)c(NC(=O)c4ccc(O)c(CC=C(C)C)c4)c(=O)oc3c2C)OC1(C)C yielded a pIC50 (second compound 0.0316 µM) of under 6.00, a pIC50 (second compound 0.1 µM) of under 6.00 and a pIC50 (second compound 0.316 µM) of under 6.00. For the same compound, the pIC50 (second compound 1 µM) was under 6.00, the pIC50 (second compound 3.16 µM) was under 6.00 and the pIC50 (second compound 10 µM) was under 6.00. It also gave a viability, T/C (second compound 0.0316 µM, first compound 0.00316 µM) of 116%, a viability, T/C (second compound 0.0316 µM, first compound 0.01 µM) of 115% and a viability, T/C [1] of 105%. For the same compound, the viability, T/C [2] was 107%, the viability, T/C [3] was 95.6% and the viability, T/C [4] was 101%. For the same compound, the viability, T/C (second compound 0.1 µM, first compound 0.00316 µM) was 94.2%, the viability, T/C (second compound 0.1 µM, first compound 0.01 µM) was 109% and the viability, T/C [5] was 91.1%. It also gave a viability, T/C [6] of 97%, a viability, T/C [7] of 108% and a viability, T/C [8] of 77.4%. It also gave a viability, T/C (second compound 0.316 µM, first compound 0.00316 µM) of 102%, a viability, T/C (second compound 0.316 µM, first compound 0.01 µM) of 110% and a viability, T/C [9] of 92.6%. It also gave a viability, T/C [10] of 97.8%, a viability, T/C [11] of 100% and a viability, T/C [12] of 108%. It also gave a viability, T/C (second compound 1 µM, first compound 0.00316 µM) of 85.1%, a viability, T/C (second compound 1 µM, first compound 0.01 µM) of 100% and a viability, T/C [13] of 96.8%. For the same compound, the viability, T/C [14] was 98.7%, the viability, T/C [15] was 104% and the viability, T/C [16] was 98%. The viability, T/C (second compound 3.16 µM, first compound 0.00316 µM) was 111%, the viability, T/C (second compound 3.16 µM, first compound 0.01 µM) was 81.2% and the viability, T/C [17] was 119%. The viability, T/C [18] was 105%, the viability, T/C [19] was 115% and the viability, T/C [20] was 93.4%. It also gave a viability, T/C (second compound 10 µM, first compound 0.00316 µM) of 98.1%, a viability, T/C (second compound 10 µM, first compound 0.01 µM) of 107% and a viability, T/C [21] of 102%. For the same compound, the viability, T/C [22] was 92.5%, the viability, T/C [23] was 110% and the viability, T/C [24] was 105%.

In the case of `CC1COCCN1c1cc(-c2ccnn2C)c2ccnc(-c3ccn[nH]3)c2n1` (centres undefined) + COC1C(OC(N)=O)C(O)C(Oc2ccc3c(O)c(NC(=O)c4ccc(O)c(CC=C(C)C)c4)c(=O)oc3c2C)OC1(C)C, the pIC50 (second compound 0.0316 µM) was 6.13, the pIC50 (second compound 0.1 µM) was 6.15 and the pIC50 (second compound 0.316 µM) was 6.17. It also gave a pIC50 (second compound 1 µM) of 6.12, a pIC50 (second compound 3.16 µM) of 6.16 and a pIC50 (second compound 10 µM) of 5.87. For the same compound, the viability, T/C [1] was 92.3%, the viability, T/C [2] was 95.7% and the viability, T/C [3] was 76.7%. It also gave a viability, T/C [4] of 40.9%, a viability, T/C (second compound 0.0316 µM, first compound 3.16 µM) of 33.4% and a viability, T/C (second compound 0.0316 µM, first compound 10 µM) of 30%. It also gave a viability, T/C [5] of 98.2%, a viability, T/C [6] of 101% and a viability, T/C [7] of 76%. It also gave a viability, T/C [8] of 40.2%, a viability, T/C (second compound 0.1 µM, first compound 3.16 µM) of 23.1% and a viability, T/C (second compound 0.1 µM, first compound 10 µM) of 31.7%. For the same compound, the viability, T/C [9] was 97.6%, the viability, T/C [10] was 108% and the viability, T/C [11] was 63.3%. For the same compound, the viability, T/C [12] was 46%, the viability, T/C (second compound 0.316 µM, first compound 3.16 µM) was 26.4% and the viability, T/C (second compound 0.316 µM, first compound 10 µM) was 23.4%. It also gave a viability, T/C [13] of 89.6%, a viability, T/C [14] of 104% and a viability, T/C [15] of 75.7%. For the same compound, the viability, T/C [16] was 43.1%, the viability, T/C (second compound 1 µM, first compound 3.16 µM) was 35.7% and the viability, T/C (second compound 1 µM, first compound 10 µM) was 29.9%. For the same compound, the viability, T/C [17] was 88.4%, the viability, T/C [18] was 101% and the viability, T/C [19] was 69.5%. It also gave a viability, T/C [20] of 42.2%, a viability, T/C (second compound 3.16 µM, first compound 3.16 µM) of 33% and a viability, T/C (second compound 3.16 µM, first compound 10 µM) of 26.9%. The viability, T/C [21] was 82.1%, the viability, T/C [22] was 95% and the viability, T/C [23] was 85.7%. It also gave a viability, T/C [24] of 54.9%, a viability, T/C (second compound 10 µM, first compound 3.16 µM) of 36.9% and a viability, T/C (second compound 10 µM, first compound 10 µM) of 30.8%.

— PubChem BioAssay AID1963828 (Molecular Pharmacology Branch, DTP, NCI, 2024)
